Measurements: patent publication US6268362A, “Amino anthracyclinone derivatives and their use in the treatment of amyloidosis” (Pharmacia & Upjohn SpA, priority 1998, dated 2001)

Target: T1, Aβ1-40 peptide (Homo sapiens, UniProt P05067)
T1 construct: An Aβ1-40 peptide monomer stock solution was prepared by dissolving the peptide in dimethylsulfoxide
Assay: Inhibition of aggregation of monomeric Aβ1-40 peptide stimulated by a seed of pre-formed sonicated Aβ1-40 amyloid fibrils (HPLC of residual monomer)
Format: biochemical
Conditions: 20 μM Aβ1-40 monomer, 50 μM test compound, 4 μM pre-formed sonicated Aβ1-40 fibrils, 2 h at 37° C., pH 7.4
Procedure: The compounds disclosed in the present invention interfere with the aggregation of monomeric Aβ1-40 peptide stimulated by a seed of Aβ1-40 amyloid fibrils. The activity of the compounds was assessed according to the procedure reported below.
An Aβ1-40 peptide monomer stock solution was prepared by dissolving the peptide in dimethylsulfoxide at a concentration of 33.33 mg/ml. The stock solution was further diluted 11.5 times with dimethylsulfoxide. This solution was then diluted with 10 mM phosphate buffer pH 7.4 containing 150 mM sodium chloride to prepare the test solution. To an eppendorf tube containing 47 μl of Aβ1-40 peptide monomer solution were added 3 μl of a 830 μM water solution of the test compound containing 66.4 μM, based on the Aβ1-40 monomer content, of pre-formed sonicated Aβ1-40 fibrils: the resulting solution was 20 μM in Aβ1-40 monomer, 50 μM in the test compound and contained 4 μM, based on the Aβ1-40 monomer content, of pre-formed sonicated Aβ1-40 fibrils. The aggregation was allowed to proceed for two hours at 37° C. The suspension was then centrifuged at 15000 rpm for 15 minutes at +4° C., the supernatant was collected and the Aβ1-40 monomer was quantitated by HPLC. The activity is expressed as the percent of inhibition of the aggregation of a 20 μM Aβ1-40 monomer solution stimulated by 4 μM, based on the Aβ1-40 monomer content, pre-formed sonicated Aβ1-40 fibrils.

T1 sequence (P05067 672-711 limits assumed): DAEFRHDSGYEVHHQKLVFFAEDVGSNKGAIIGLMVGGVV

% inhibition	SMILES
74.1%	COc1cccc2c1C(=O)c1c(O)c3c(c(O)c1C2=O)CC(O)(C(=O)CN1CC=CCC1)CC3O (stereo not shown) [Compound 1a, 14-(1,2,3,6-tetrahydropyridin-1-yl)daunomycinone]
47.3%	COc1cccc2c1C(=O)c1c(O)c3c(c(O)c1C2=O)CC(O)(C(O)CN1CC=CCC1)CC3 [Compound 1d, (13R)-7-deoxy-13-dihvdro-14-(1,2,3,6-tetrahydropyridin-1-yl)daunomycinone]
52.1%	COc1cccc2c1C(=O)c1c(O)c3c(c(O)c1C2=O)CC(O)(C(=O)CN1CC=CCC1)CC3N1CCOCC1 (stereo not shown) [Compound 1k, 7-deoxy-7-(4-morpholinyl) -14-(1,2,3,6-tetrahydropyridin-1-yl)daunomycinone]
11.4%	COc1cccc2c1C(=O)c1c(O)c3c(c(O)c1C2=O)CC(O)(C(=O)CN1CCOCC1)CC3 (stereo not shown) [Compound A17, 7-deoxy-14-(4-morpholinyl)-daunomycinone, reference compound]
